# Laboratory results reported in patent US11701341B2, “Use of 3-[5-amino-4-(3-cyanobenzoyl)-pyrazol-1-yl]-n-cyclopropyl-4-methylbenzamide in the treatment of acute exacerbations of chronic obstructive pulmonary disease” (MEREO BIOPHARMA 1 LIMITED, priority 2017, dated 2023).
# How the values were obtained:
# [1] = tested on: patients with AECOPD; experiment: Phase 2 trial (AETHER): change in FEV1 from baseline to Day 7, on top of Standard of Care; assay type: in vivo, human; settings: for improvement in FEV1 (change from baseline to Day 7): sub-group with blood eosinophils <2%, oral, three doses over five days (Days 1, 3, 5), on top of Standard of Care, FIG. 1, FIG. 2
# Excerpt: (§1) A Phase 2 trial (referred to as AETHER) was a double-blind, randomised, placebo-controlled clinical study investigating the use of BCT-197, on top of Standard of Care, for the treatment of patients with AECOPD. Standard of Care included the addition of steroids and/or antibiotics to a patient's chronic COPD medication and symptomatic bronchodilators. Following baseline assessment, 282 eligible patients were randomised to receive either two different dose regimens of BCT-197 or placebo (three doses over five days). The primary endpoint was a comparison of change in forced expiratory volume in 1 second (FEV1) from baseline to day 7 within each arm of the study.
# The trial assessed adult patients ≥40 years with an acute exacerbation of COPD (as defined by increase in symptoms of cough, and/or sputum and/or breathlessness that required addition of antibiotics and or systemic corticosteroids to their regular treatment).
# Patients received one of two oral dosing regimens of 3-[5-amino-4-(3-cyanobenzoyl)-pyrazol-1-yl]-N-cyclopropyl-4-methylbenzamide or matching oral placebo administered according to the dosing schedules shown in Table 1. […]
# Efficacy of treatment was measured by the primary endpoint of change in FEV1 from baseline (before treatment) to Day 7. Patients with COPD and low eosinophils (determined by blood percentages or absolute counts) are considered to be poorly responsive to treatment of acute exacerbations using known treatments.
# [2] = tested on: high sensitivity C-Reactive Protein (hsCRP); experiment: AETHER exploratory outcome: hsCRP measured in patient blood; assay type: in vivo, human; settings: high and low dose over 5 days; including patients with <2% eosinophils; maximal at Day 7; FIG. 3
# Excerpt: as §1
# (§2) Patients received one of two oral dosing regimens of 3-[5-amino-4-(3-cyanobenzoyl)-pyrazol-1-yl]-N-cyclopropyl-4-methylbenzamide or matching oral placebo administered according to the dosing schedules shown in Table 1.
# (§3) A further exploratory outcome included over the treatment period to Day 5 and BCT197 systemic exposure (to Day 14) were the inflammatory biomarkers high sensitivity C-Reactive Protein (hsCRP) and fibrinogen measured in patient blood. […] This was maximal at Day 7 (FIGS. 3 and 4) coincident with the highest improvement in FEV1 (FIG. 2) in response to BCT197 in the same patient population with <2% eosinophils.
# [3] = tested on: fibrinogen; experiment: AETHER exploratory outcome: fibrinogen measured in patient blood; assay type: in vivo, human; settings: high and low dose over 5 days; including patients with <2% eosinophils; maximal at Day 7; FIG. 4
# Excerpt: as §1, §2, §3
# [4] = tested on: AECOPD; settings: single oral dose; cited from earlier work
compound,measurement,setting,value
"Cc1ccc(C(=O)NC2CC2)cc1-n1ncc(C(=O)c2cccc(C#N)c2)c1N [BCT197, 3-[5-Amino-4-(3-cyanobenzoyl)-pyrazol-1-yl]-N-cyclopropyl-4-methylbenzamide]",relative difference in FEV1 response versus standard of care alone (placebo arm),"[1]; >2% eosinophil sub-population, FIG. 1",much less than in the low eosinophil group
same,improvement in FEV1 (change from baseline to Day 7),[1],substantial and consistent improvement in FEV1
same,improvement in FEV1 (change from baseline to Day 7),[1]; listed as compound A,significant improvement
same,reduction versus placebo in hsCRP from baseline,[2],dose-dependent reduction
same,reduction versus placebo in fibrinogen from baseline,[3],dose-dependent reduction
same,effect on recovery of AECOPD to the stable disease state,[4],accelerates the recovery to the stable disease state
